In PMC7311409, “Crystal structures of SAMHD1 inhibitor complexes reveal the mechanism of water-mediated dNTP hydrolysis” (Nature Communications, 2020):
Where two headings read alike, the source gives them in different places.

Key:
SAMHD1 [1] = molecular target: T1, SAMHD1 (Homo sapiens, UniProt Q9Y3Z3); design: wt-SAMHD1(1-626); MDCC-PBP phosphate sensor coupled SAMHD1-Ppx1 assay, competitive inhibition of TTP hydrolysis, global fit; conditions: GTP-activated, substrate TTP 0.1-1 mM, pH 8.0, 25 °C; inhibitor
Protocol: To obtain quantitative kinetic parameters for substrate hydrolysis (KM and kcat) and for inhibition by dNMPNPP analogues (Ki) a coupled assay was employed utilising the biosensor MDCC-PBP[90],[91] to measure phosphate release from combined SAMHD1 triphosphohydrolase and S. cerevisiae Ppx1 exopolyphosphatase activity. In a typical experiment, solutions containing wt-SAMHD1(1-626), Ppx1, MDCC-PBP and GTP were incubated for 5 min in assay buffer (20 mM Tris pH 8.0, 150 mM NaCl, 5 mM MgCl2 and 2 mM TCEP) at 25 °C before the reaction was initiated by the addition of nucleotides and nucleotide analogues. The final concentrations were 0.2 µM SAMHD1, 0.01 µM Ppx1, 40 µM MDCC-PBP, 0.2 mM GTP and varying concentrations of dNTP substrates and analogues. The fluorescence intensity was recorded at 430 nm excitation and 465 nm emission over a period of 10–30 min in a Clariostar multiwell plate reader (BMG Labtech). […] Apparent dissociation constants for substrate binding (KM) and catalytic constants (kcat) were then determined by non-linear least-squares fitting using a hyperbolic function in the software package Prism 7 (Graphpad). […] The fitting was performed with a fixed value of KM for GTP-activated TTP hydrolysis, determined previously[35] and only kcat and Ki were allowed to vary. […]
Target sequence in this assay (Q9Y3Z3 whole entry): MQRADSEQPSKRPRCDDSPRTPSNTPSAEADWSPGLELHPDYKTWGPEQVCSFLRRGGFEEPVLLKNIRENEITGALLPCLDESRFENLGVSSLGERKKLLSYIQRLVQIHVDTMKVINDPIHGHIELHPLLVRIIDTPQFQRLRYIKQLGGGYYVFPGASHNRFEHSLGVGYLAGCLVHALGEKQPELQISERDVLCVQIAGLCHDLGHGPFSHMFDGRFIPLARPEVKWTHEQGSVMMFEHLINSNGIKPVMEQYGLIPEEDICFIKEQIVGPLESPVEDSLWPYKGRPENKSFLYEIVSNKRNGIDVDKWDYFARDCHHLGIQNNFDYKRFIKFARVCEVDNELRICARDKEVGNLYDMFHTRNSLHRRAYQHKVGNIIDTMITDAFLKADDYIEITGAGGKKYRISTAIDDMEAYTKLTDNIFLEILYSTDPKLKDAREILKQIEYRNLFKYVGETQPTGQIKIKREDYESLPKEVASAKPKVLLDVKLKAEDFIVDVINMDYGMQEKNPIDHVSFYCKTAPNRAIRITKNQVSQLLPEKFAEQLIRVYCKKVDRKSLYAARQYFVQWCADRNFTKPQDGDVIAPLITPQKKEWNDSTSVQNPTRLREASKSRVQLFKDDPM

SAMHD1 [2] = molecular target: T1, SAMHD1; assay: X-ray co-crystal structure; competitive inhibition in coupled enzyme assay; type: binding; design: residues 109-626 (crystal)
Target sequence in this assay (Q9Y3Z3 109-626): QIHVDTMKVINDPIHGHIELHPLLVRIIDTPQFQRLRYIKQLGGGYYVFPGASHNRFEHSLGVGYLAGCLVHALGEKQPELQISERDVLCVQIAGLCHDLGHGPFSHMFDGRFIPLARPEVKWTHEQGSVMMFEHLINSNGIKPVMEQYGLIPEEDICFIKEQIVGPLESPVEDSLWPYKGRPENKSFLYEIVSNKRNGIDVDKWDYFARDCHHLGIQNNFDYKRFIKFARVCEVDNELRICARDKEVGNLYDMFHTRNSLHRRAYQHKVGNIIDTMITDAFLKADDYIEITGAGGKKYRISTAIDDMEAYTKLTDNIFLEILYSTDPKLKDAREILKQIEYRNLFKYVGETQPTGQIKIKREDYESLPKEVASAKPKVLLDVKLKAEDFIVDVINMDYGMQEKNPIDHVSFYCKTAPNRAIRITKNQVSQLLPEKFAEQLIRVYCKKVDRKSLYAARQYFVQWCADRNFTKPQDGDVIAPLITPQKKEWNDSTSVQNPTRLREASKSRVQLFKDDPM

SAMHD1 [3] = molecular target: T2, SAMHD1 (Homo sapiens, UniProt Q9Y3Z3, D137N); assay: X-ray co-crystal structure; type: binding
T2 construct: residues 109-626
T2 sequence (Q9Y3Z3 109-626 D137N): as the sequence (Q9Y3Z3 109-626) above, with D29N counted along it

SAMHD1 [4] = molecular target: T1, SAMHD1; assay: MDCC-PBP/Ppx1 coupled triphosphohydrolase assay, competitive inhibition of TTP hydrolysis, global fit; SEC-MALLS tetramerisation; type: biochemical; design: wt-SAMHD1(1-626)
Target sequence in this assay (Q9Y3Z3 whole entry): as the sequence (Q9Y3Z3 whole entry) above

SAMHD1 [5] = molecular target: T2, SAMHD1; assay: X-ray co-crystal structure; activation of dNTP hydrolysis; type: binding

| Ki (SAMHD1 [1]) [nM] | Ki (SAMHD1 [4]) [nM] | Structure (SMILES) | also measured |
| --- | --- | --- | --- |
| 370 ± 20 | – | Cc1cn([C@H]2C[C@H](O)[C@@H](COP(=O)(O)NP(=O)(O)OP(=O)(O)O)O2)c(=O)[nH]c1=O [TMPNPP] | X-ray co-crystal structure (SAMHD1 [2]): (ii) GTP (AL1), dATP (AL2) and TMPNPP (active site) |
| – | 52 | Nc1nc2c(ncn2[C@H]2C[C@H](O)[C@@H](COP(=O)(O)NP(=O)(O)OP(=O)(O)O)O2)c(=O)[nH]1 [dGMPNPP] | X-ray co-crystal structure (SAMHD1 [3]): (ii) XTP (AL1) and dGMPNPP (AL2 and active site) |
| 73 ± 3 | – | Nc1ccn([C@H]2C[C@H](O)[C@@H](COP(=O)(O)NP(=O)(O)OP(=O)(O)O)O2)c(=O)n1 [dCMPNPP] | – |
| – | – | O=c1[nH]c(=O)c2ncn([C@@H]3O[C@H](COP(=O)(O)OP(=O)(O)OP(=O)(O)O)[C@@H](O)[C@H]3O)c2[nH]1 [XTP] | X-ray co-crystal structure; activation of dNTP hydrolysis (SAMHD1 [5]): D137N-SAMHD1 is activated by xanthosine-5′-triphosphate (XTP) rather than GTP through AL1-binding |
| – | 780 | Nc1ncnc2c1ncn2[C@H]1C[C@H](O)[C@@H](COP(=O)(O)NP(=O)(O)OP(=O)(O)O)O1 [dAMPNPP] | – |
